Results from patent US20220380368A1, “SPIROCYCLIC ANDROGEN RECEPTOR PROTEIN DEGRADERS” (THE REGENTS OF THE UNIVERSITY OF MICHIGAN, priority 2019, published 2022).
Like-named read-outs stand apart in the source and are kept apart here.

Key:
[1] = target: T1, AR protein (Homo sapiens, UniProt P10275); assay: Western blotting analysis of AR protein levels in VCaP cells, band quantification, DC50/DC90; type: cell-based
T1 construct: endogenous in cells; host or cells: VCaP
T1 sequence (P10275 1-920): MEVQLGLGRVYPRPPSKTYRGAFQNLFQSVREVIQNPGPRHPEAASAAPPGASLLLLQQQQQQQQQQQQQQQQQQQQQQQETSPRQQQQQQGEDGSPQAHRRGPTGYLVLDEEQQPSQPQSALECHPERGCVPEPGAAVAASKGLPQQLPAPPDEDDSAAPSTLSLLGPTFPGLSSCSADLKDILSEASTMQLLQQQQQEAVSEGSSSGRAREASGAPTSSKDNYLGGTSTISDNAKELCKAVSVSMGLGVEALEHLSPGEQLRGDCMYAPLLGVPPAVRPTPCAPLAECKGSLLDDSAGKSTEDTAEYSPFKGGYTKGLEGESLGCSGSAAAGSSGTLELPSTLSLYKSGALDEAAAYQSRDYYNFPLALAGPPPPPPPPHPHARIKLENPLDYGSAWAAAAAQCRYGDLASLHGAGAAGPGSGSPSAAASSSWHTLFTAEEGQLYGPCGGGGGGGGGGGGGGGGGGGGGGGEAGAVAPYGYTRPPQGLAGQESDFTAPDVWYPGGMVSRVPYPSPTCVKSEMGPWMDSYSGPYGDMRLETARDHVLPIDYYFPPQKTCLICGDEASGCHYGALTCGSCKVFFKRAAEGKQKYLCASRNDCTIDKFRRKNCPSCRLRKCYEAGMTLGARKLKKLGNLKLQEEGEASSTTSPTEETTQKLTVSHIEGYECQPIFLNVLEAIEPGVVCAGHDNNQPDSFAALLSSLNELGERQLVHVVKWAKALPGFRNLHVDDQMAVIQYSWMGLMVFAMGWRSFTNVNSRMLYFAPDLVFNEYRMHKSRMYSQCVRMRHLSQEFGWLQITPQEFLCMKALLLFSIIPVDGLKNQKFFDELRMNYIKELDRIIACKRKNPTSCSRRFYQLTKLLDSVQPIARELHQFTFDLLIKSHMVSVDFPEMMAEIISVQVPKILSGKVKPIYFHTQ
Method in brief: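 VCaP cells treated with compounds, lysed in RIPA and probed for AR by Western blot with GAPDH loading control. Band intensities normalised to GAPDH; DC50 from curve fit, DC90 calculated from DC50 and Hill slope via four-parameter equation.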

[2] = Mouse PK studies after oral and IV dosing; type: in vivo; details: for F: PO 3 mg/kg vs IV 1 mg/kg; for AUC(0-t) / clearance / half-life / Vd / Cmax / Tmax: in vivo; for clearance: read-out: IV Cl (converted); for Vd: read-out: IV VSS
Description: The pharmacokinetics of representative Compounds of the Disclosure were determined after oral and IV dosing at the concentrations indicated in mouse (Table 7). […] The vehicles used in these studies are either (i) 10% PEG400+90% PBS (adjusted to pH to 8.0 by 0.5 N NaOH); or (ii) 100% PEG200.

[3] = VCaP cells, Table 6; read-out: VCaP DC50
[4] = iv, 1 mg/kg, IV, dose 1 mg/kg, read-out: IV AUC(0 − t)
[5] = iv, 1 mg/kg, IV, dose 1 mg/kg, read-out: IV T1/2 (converted)
[6] = po, 3 mg/kg, PO, dose 3 mg/kg, read-out: PO AUC(0 − t)
[7] = po, 3 mg/kg, PO, dose 3 mg/kg, read-out: PO T1/2 (converted)

SMILES	DC50 [1, 3] [nM]	F [2] [%]	AUC(0-t) [2, 4] [ng·h/mL]	clearance ([2]; iv, 1 mg/kg, IV, dose 1 mg/kg) [mL/min/kg]	half-life [2, 5] [h]	Vd ([2]; iv, 1 mg/kg, IV, dose 1 mg/kg) [L/kg]	Cmax ([2]; po, 3 mg/kg) [ng/mL]	Tmax ([2]; po, 3 mg/kg) [h]	AUC(0-t) [2, 6] [ng·h/mL]	half-life [2, 7] [h]	DC50 ([1]; read-out: VCaP DC50; VCaP cells, Table 6) [nM]	IV AUC(0 − t) ([2]; IV, dose 1 mg/kg) [ng·h/mL]	IV Cl ([2]; IV, dose 1 mg/kg) [mL/min/kg]	IV T1/2 ([2]; IV, dose 1 mg/kg) [h]	IV VSS ([2]; IV, dose 1 mg/kg) [L/kg]	PO AUC(0 − t) ([2]; PO, dose 3 mg/kg) [ng·h/mL]	PO Cmax ([2]; PO, dose 3 mg/kg) [ng/mL]	PO T1/2 ([2]; PO, dose 3 mg/kg) [h]	PO Tmax ([2]; PO, dose 3 mg/kg) [h]
C[C@H]1CC2(CCN(c3ccc(C(=O)N4CCC(N5CCN(c6cc7c(cc6F)C(=O)N(C6CCC(=O)NC6=O)C7=O)CC5)CC4)nn3)CC2)CN1c1ccc(C#N)c(Cl)c1 (stereo partly drawn) [Cpd. No. 500, 2-chloro-4-((3S)-8-(6-(4-(4-(2-(2,6-dioxopiperidin-3-yl)-6-fluoro-1,3-dioxoisoindolin-5-yl)piperazin-1-yl)piperidine-1-carbonyl)pyridazin-3-yl)-3-methyl-2,8-diazaspiro[4.5]decan-2-yl)benzonitrile]	1 to 10	60	1880	7.83	2.6	1.53	711	1.7	3750	2									
C[C@H]1CC2(CCN(c3ccc(C(=O)N4CCN(CC5CN(c6cc7c(cc6F)C(=O)N(C6CCC(=O)NC6=O)C7=O)C5)CC4)cc3)CC2)CN1c1ccc(C#N)c(Cl)c1 (stereo partly drawn) [Cpd. No. 502, 2-chloro-4-((3S)-8-(4-(4-((1-(2-(2,6-dioxopiperidin-3-yl)-6-fluoro-1,3-dioxoisoindolin-5-yl)azetidin-3-yl)methyl)piperazine-1-carbonyl)phenyl)-3-methyl-2,8-diazaspiro[4.5]decan-2-yl)benzonitrile]	< 1	32	3490	3.33	10	3	289	3.3	3390	9.5									
C[C@H]1CC2(CCN(c3ccc(C(=O)N4CCN(C5CN(c6ccc7c(c6)C(=O)N(C6CCC(=O)NC6=O)C7=O)C5)CC4)cc3F)CC2)CN1c1ccc(C#N)c(Cl)c1 (stereo partly drawn) [Cpd. No. 510, 2-chloro-4-((3S)-8-(4-(4-(1-(2-(2,6-dioxopiperidin-3-yl)-1,3-dioxoisoindolin-5-yl)azetidin-3-yl)piperazine-1-carbonyl)-2-fluorophenyl)-3-methyl-2,8-diazaspiro[4.5]decan-2-yl)benzonitrile]		51	4080	3.33	8.3	2.1	518	2.7	6270	7.2	< 1								
C[C@H]1CC2(CCN(c3ccc(C(=O)N4CCC(N5CCN(c6ccc7c(c6)C(=O)N(C6CCC(=O)NC6=O)C7=O)CC5)CC4)cc3F)CC2)CN1c1ccc(C#N)c(Cl)c1 (stereo partly drawn) [Cpd. No. 511, 2-chloro-4-((3S)-8-(4-(4-(4-(2-(2,6-dioxopiperidin-3-yl)-1,3-dioxoisoindolin-5-yl)piperazin-1-yl)piperidine-1-carbonyl)-2-fluorophenyl)-3-methyl-2,8-diazaspiro[4.5]decan-2-yl)benzonitrile]	< 1	28	9040	1.67	8	0.9	668	2.7	7520	6.4									
C[C@H]1CC2(CCN(c3ccc(C(=O)N4CCN(C5CCN(c6ccc7c(c6)C(=O)N(C6CCC(=O)NC6=O)C7=O)CC5)CC4)cc3F)CC2)CN1c1ccc(C#N)c(Cl)c1 (stereo partly drawn) [Cpd. No. 521, 2-chloro-4-((3S)-8-(4-(4-(1-(2-(2,6-dioxopiperidin-3-yl)-1,3-dioxoisoindolin-5-yl)piperidin-4-yl)piperazine-1-carbonyl)-2-fluorophenyl)-3-methyl-2,8-diazaspiro[4.5]decan-2-yl)benzonitrile]	< 1	30	2990	5	8.2	3.1	344	1.7	2730	7									
C[C@H]1CC2(CCN(c3ccc(C(=O)N4CCN(C5CCN(c6ccc7c(c6)C(=O)N(C6CCC(=O)NC6=O)C7=O)CC5)CC4)cc3F)CC2)CN1c1ccc(C#N)c(Cl)c1 (stereo partly drawn) [Cpd. No. 522, 2-chloro-4-((3S)-8-(4-(4-(1-(2-(2,6-dioxopiperidin-3-yl)-1,3-dioxoisoindolin-5-yl)piperidin-4-yl)piperazine-1-carbonyl)-2-fluorophenyl)-3-methyl-2,8-diazaspiro[4.5]decan-2-yl)benzonitrile]	< 1	33										1723	8.3	8.6	4.6	1731	196	6.0	2.0
C[C@H]1CC2(CCN(c3ccc(C(=O)N4CCN(CC5CN(c6ccc7c(c6)C(=O)N(C6CCC(=O)NC6=O)C7=O)C5)CC4)cc3F)CC2)CN1c1ccc(C#N)c(Cl)c1 (stereo partly drawn) [Cpd. No. 528, 2-chloro-4-((3S)-8-(4-(4-((1-(2-(2,6-dioxopiperidin-3-yl)-1,3-dioxoisoindolin-5-yl)azetidin-3-yl)methyl)piperazine-1-carbonyl)-2-fluorophenyl)-3-methyl-2,8-diazaspiro[4.5]decan-2-yl)benzonitrile]	< 1	33	1710	8.33	8.9	5.7	149	1.7	1680	8.8									
C[C@H]1CC2(CCN(c3ccc(C(=O)N4CCN(CC5CN(c6ccc7c(c6)C(=O)N(C6CCC(=O)NC6=O)C7=O)C5)CC4)c(F)c3)CC2)CN1c1ccc(C#N)c(Cl)c1 (stereo partly drawn) [Cpd. No. 529, 2-chloro-4-((3S)-8-(4-(4-((1-(2-(2,6-dioxopiperidin-3-yl)-1,3-dioxoisoindolin-5-yl)azetidin-3-yl)methyl)piperazine-1-carbonyl)-3-fluorophenyl)-3-methyl-2,8-diazaspiro[4.5]decan-2-yl)benzonitrile]	1 to 10	45	5130	3.33	10.2	2.2	507	3.3	6920	8.5									
